Laboratory results taken from PubChem BioAssay (NCI).
Several values for one entry are separate records, joined by “and”; a condition that tells them apart may be missing. Equal entries are not always repeated.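 Where inhibition never reached the appropriate level, the endpoint shown equals the highest concentration tested. Otherwise, values were interpolated linearly from a five-concentration, 48-hour dose response in 96-well plates. GI50: concentration for 50% inhibition of growth. TGI: concentration producing complete growth inhibition.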

The compounds below were run on MDA-MB-468 breast (assay: NCI anticancer screen, dose series, 48 h).
`CC(=O)Oc1ccccc1C(=O)Nc1cc(C(C)C)ccc1C` was tested, and the GI50 was 2.49 µM and the TGI was 8.38 µM.
Work on `CN(C)c1ccc(/C=C/C=C(/C#N)c2ccccc2)cc1` yielded a GI50 of 17.5 µM and a TGI of 67.7 µM.
`CN(CCOc1ccc(C#N)cc1)CCOc1ccc(C#N)cc1` was tested, and the GI50 was 27.5 µM and the TGI was > 100 µM.
In the case of `C[C@@H]1COCCN1c1cc(C2(S(C)(=N)=O)CC2)nc(-c2ccnc3[nH]ccc23)n1` (stereo not given in full), the GI50 is reported as 3.92 µM and the TGI is reported as 25 µM.
`c1cnc2[nH]cc(-c3csc(-c4cn(CCCCN5CCOCC5)c5ccccc45)n3)c2c1` showed a GI50 of 2.07 µM and a TGI of 3.99 µM.
`C=C1CC[C@@H]2[C@](C)(COC(C)=O)[C@H](OC(C)=O)CC[C@@]2(C)[C@@H]1CC(Nc1ccc(S(=O)(=O)Nc2nccc(C)n2)cc1)C1=CCOC1=O` (stereo not given in full) gave a GI50 of 1.99 µM and a TGI of 4.31 µM.
`OCc1ccc(-c2nn(Cc3ccccc3)c3ccccc23)o1` showed a GI50 of 0.11 µM and a TGI of 0.287 µM.
With `CNC(=O)c1cc(N2CCc3cc(NC(=O)Nc4ccc(N5CCOCC5)c(C(F)(F)F)c4)ccc32)ccn1` the GI50 was 5.22 µM and the TGI was > 33.3 µM.
With `CC(=O)OCC1OC(n2ccc(=O)[nH]c2=O)C(OC(C)=O)C1OC(C)=O` (stereo not given) the GI50 was > 100 µM and the TGI was > 100 µM.
In the case of `COC(=O)CNC(=O)[C@@H](OC)[C@@H]1Cc2cc3cc(OC4CC(OC5CC(O)C(O)C(C)O5)C(O)C(C)O4)c(C)c(O)c3c(O)c2C(=O)[C@H]1OC1CC(OC2CC(OC3CC(C)(O)C(O)C(C)O3)C(O)C(C)O2)C(O)C(C)O1` (stereo not given in full), the GI50 is reported as 0.162 µM and the TGI is reported as 1.31 µM.
Compound `CSc1ccc(/C=C2\N=C(c3ccccc3)N(c3nc4ccc(Sc5ccccc5)cc4[nH]3)C2=O)cc1` has a GI50 of 4.44 µM and a TGI of 25.8 µM.
Compound `C[C@H]1[C@H](C)CC[C@]2(C(=O)O)CC[C@]3(C)C(=CC[C@@H]4[C@@]5(C)C/C(=C/c6cccnc6)[C@H](O)C(C)(C)[C@@H]5CC[C@]43C)[C@H]12` has a GI50 of 19.8 µM and a TGI of 80.1 µM.
For `CN(C)C(=S)N=Nc1c(O)[nH]c2ccccc12`, the GI50 was 0.482 µM and the TGI was 3.46 µM.
For `CCN(Cc1ccccc1OC)c1ccc(CO)c(Cl)c1`, the GI50 was 0.0372 µM and the TGI was 0.214 µM.
In the case of `Fc1cccc(COc2ccc(Nc3ncnc4cc(-c5ccc[nH]5)sc34)cc2Cl)c1`, the GI50 is reported as 0.0446 µM and the TGI is reported as 0.306 µM.
For `Nc1cc(N)c(N)cc1N`, the GI50 was 1.8 µM and the TGI was 4.48 µM.
Work on `Oc1ccc(CCCCCCc2ccc(O)cc2)cc1` yielded a GI50 of 12.7 µM and a TGI of 32.9 µM.
Work on `O=C1/C(=C/c2ccc(O)cc2)COc2ccc(-c3ccccc3)cc21` yielded a GI50 of 3.32 µM and a TGI of 11.4 µM.
`CC1OC2CC(=O)OC2C2=C1C(=O)c1c(O)c3c(c(O)c1C2=O)C1CC(O)C3(O)C(C)O1` (stereo not given) gave a GI50 of 0.229 µM and a TGI of 0.618 µM.
Work on `COc1ccc(-c2cn(-c3ccccc3)c(-c3ccccc3)n2)cc1OC` yielded a GI50 of 4.9 µM and a TGI of 21.9 µM.
`c1n[nH]cc1-c1nc2ccc3[nH]ncc3c2c2c1CCCC2` showed a GI50 of 1.36 µM and a TGI of 3.6 µM.
For `C#CC[C@@H]1C[C@]2(C)[C@H]3CC=C4[C@H]5CC(C)(C)CC[C@]5(C(=O)NCCCCN)CC[C@@]4(C)[C@]3(C)CC[C@H]2C(C)(C)[C@H]1OC(C)=O`, the GI50 was 1.71 µM and the TGI was 3.27 µM.
Compound `CC[C@H](CC#N)OC(=O)N[C@@H](C)c1cccc(NC(=O)Nc2ccc(-c3cnco3)c(OC)c2)c1` has a GI50 of 0.531 µM and a TGI of 18.2 µM.
In the case of `CCCCCCCCCCCC[n+]1ccc(CCCCCCCCC)cc1`, the GI50 is reported as 0.253 µM and the TGI is reported as 0.833 µM.
For `Cc1cc(C(C#N)c2ccc(Cl)cc2)c(Cl)cc1NC(=O)c1cc(I)cc(I)c1O` (stereo not given), the GI50 was 4.31 µM and 15.3 µM and the TGI was 18 µM and 30 µM.
`CC(=C(c1ccc(OCCN(C)C)cc1)c1ccc(OCCN(C)C)cc1)c1ccc(Cl)cc1` showed a GI50 of 0.827 µM and a TGI of 3.24 µM.
For `CC(=O)O[C@@H]1CC2C(C)(C)CCCC2(C)C2=C1C(=O)C(C(C)C)=CC2=O` (stereo not given in full), the GI50 was 1.54 µM and the TGI was 3.81 µM.
In the case of `ClCc1c(Cl)c(Cl)c(Cl)c(CCl)c1Cl`, the GI50 is reported as 1.57 µM and the TGI is reported as 3.11 µM.
Work on `COc1cc(Nc2nc(N[C@H]3CCCC[C@@H]3N)nc3cc[nH]c(=O)c23)cc(OC)c1` yielded a GI50 of 0.26 µM and a TGI of 0.854 µM.
With `CC(C)(C)c1ccc(S(=O)(=O)N[C@H]2CC[C@H]3[C@@H]4CCc5cc(OS(=O)(=O)O)ccc5[C@H]4CC[C@]23C)cc1` the GI50 was 2.05 µM and the TGI was 5.59 µM.
`CCCCN(Cc1ccc(F)cc1)c1ccc(CO)c(Cl)c1` was tested, and the GI50 was 0.167 µM and the TGI was 0.449 µM.
With `C[C@@H]1CN(CC(=O)N2CC(C)(C)c3nc(CO)c(Cc4ccc(F)cc4)cc32)[C@@H](CN2CCOC[C@H]2C)CN1` the GI50 was 10.9 µM and the TGI was 27.9 µM.
For `C=C1C(=O)O[C@H]2[C@H]1CC/C(COC(=O)N1CCC[C@H]1C(=O)Nc1ccc(OC)c(C(N)=O)c1O)=C\CC[C@@]1(C)O[C@@H]21`, the GI50 was 1.06 µM and the TGI was 3.46 µM.
In the case of `CC(CNC(Cc1ccccc1)c1ccccc1)NC(Cc1ccccc1)c1ccccc1` (stereo not given), the GI50 is reported as 1.74 µM and the TGI is reported as 3.67 µM.
Work on `O=C(CCl)N1c2ccccc2Sc2c1ccc1ccccc21` yielded a GI50 of 2.09 µM and a TGI of 3.95 µM.
For `Fc1ccc2[nH]c3c(NCCCN4CCOCC4)ncnc3c2c1`, the GI50 was 20.4 µM and the TGI was > 100 µM.
Work on `CN(C)c1ccc2cc(-c3ccccc3F)c(N)nc2c1` yielded a GI50 of 0.542 µM and a TGI of 12.2 µM.
With `COc1cc[nH]c1/C=C1\C(=O)Nc2ccc(F)c(I)c21` the GI50 was > 5.39 µM and the TGI was > 25 µM.
`Cc1nc2sc(C(=O)Nc3ccccc3)c(N)c2cc1C(=O)/C=C/c1ccccc1` showed a GI50 of 1.73 µM and a TGI of 3.82 µM.
Compound `Cn1ccnc1C(=O)/C=C/c1ccc(CC(=O)Nc2ccccc2)cc1` has a GI50 of 1.71 µM and a TGI of 7.11 µM.
